Test results from patent publication US12409158B2, “Combination therapy for treating cancer” (GONGWIN BIOPHARM CO., LTD, priority 2022, dated 2025).

Experiments:
M5 canine melanoma tumor [1] = assay: M5 canine melanoma tumor growth in implanted mice; type: in vivo, BALB/cByJNarl mice; conditions: cisplatin 2 mg/kg; for Tumor mass: after excision from sacrificed mice, IP three times per week, PTS 100 mg/kg, mean ± SD; for Tumor mass reduction (%): relative to the control, PTS 100 mg/kg IP three times per week
Procedure: Male BALB/cByJNarl mice at six-weeks of age were obtained from National Laboratory Animal Breeding and Research Center, Taipei, Taiwan. Two mice were housed in each cage and provided them with sterile food and water. The mice were maintained under a constant temperature (22±2° C.) and relative humidity (55±5%), with a 12:12 h light:dark cycle. The Institutional Animal Care and Use Committee (IACUC) at the National […] University (IACUC Approval No.110003) reviewed and approved the study protocol, in which procedures were in accordance with the Guidelines for the Care and Use of Laboratory Animals published by the Taiwanese Ministry of Health and Welfare. The M5 canine melanoma cell line was obtained from the School of Veterinary Medicine at National Taiwan University. The cells were cultured in a humidified atmosphere (95% air, 5% CO2) at 37° C. in 90% high-glucose Dulbecc's Modified Eagle Medium supplemented with 5% fetal bovine serum, 50 IU/ml of penicillin, and […] of streptomycin (Gibco Laboratories, Grand Island, NY, USA). The cells were routinely passaged by removing the medium and overlaying the cell monolayer with 0.25% trypsin and 0.1% ethylenediaminetetraacetic acid. The experimental treatments were commenced after the implanted M5 cells had formed a detectable tumor mass, which was assessed on day 7 after implantation. Briefly, the mice were anesthetized via intraperitoneal injection of Zoletil (Virbac Taiwan, Taipei, Taiwan), and then subcutaneously injected 100 μl of cell suspension containing 10^7 viable M5 cells into a posterior leg. […] All treatments were administered via intraperitoneal injection. The control group received saline daily, while the three treatment groups received their corresponding treatments three times per week. The cisplatin group received 2 mg/kg cisplatin (Sigma; St. Louis, MO, USA). The PTS group was administered with 100 mg/kg PTS (Gongwin Biopharm Holding, Taipei, Taiwan). The cisplatin+PTS group received 100 mg/kg PTS and 2 mg/kg cisplatin. The dosage of cisplatin was selected such that this drug affects apoptosis, invasion, metastasis, angiogenesis, and the growth signal mechanisms in canine melanoma implanted in mice. […] The growth of the tumors was assessed every seven days by measuring their largest and smallest diameters, and calculated their volume according to the following formula: […] The mice were observed daily for clinical signs, weighed them every three days, and at one month after tumor-cell implantation euthanized them with an overdose of anesthetic combined with carbon dioxide. […] Protein expression was assessed via IHC with the […] mouse/rabbit polymer detection system produced by BioTnA (Kaohsiung, Taiwan). […]

M5 canine melanoma tumor [2] = assay: TUNEL/DAPI assay of apoptosis in excised M5 tumors; type: in vivo, BALB/c nude mice; conditions: cisplatin 2 mg/kg, PTS 100 mg/kg IP three times per week
Procedure: (§1) The mice were observed daily for clinical signs, weighed them every three days, and at one month after tumor-cell implantation euthanized them with an overdose of anesthetic combined with carbon dioxide. Immediately before sacrificing the mice, the blood was collected from them under anesthesia for hematological assessment. After euthanizing the mice, the tumors were excised immediately. The tumor specimens were divided into two groups. One group was treated with 10% formalin and embedded the specimens in paraffin. These specimens were investigated by hematoxylin and eosin staining; terminal deoxyribonucleotidyl transferase (TdT)-mediated biotin-16-dUTP nick-end labeling (TUNEL assay; APO-BrdU TUNEL Assay Kit, BD Pharmingen, San Diego, CA, USA); and IHC for IL-1β, TNF-α, TGF-β, and CD44, using primary antibodies against these factors (Merck, Billerica, MA, USA). Protein expression was assessed via IHC with the […] mouse/rabbit polymer detection system produced by BioTnA (Kaohsiung, Taiwan). A high-resolution digital microscope (Moticam 2300, Motic Instruments, Richmond, Canada) equipped with Motic Images Plus (version 2.0) was used to capture and analyze the images. The other groups of tumor specimens were first minced coarsely and homogenized, and then stored in a freezer at -80° C.

phosphorylated ERK = assay: Western blot of phosphorylated ERK in M5 tumors; type: in vivo, BALB/c nude mice; conditions: vs control group
Procedure: as §1, with “[…] Protein expression and phosphorylation were quantified with ImageJ (National Institutes” for “The other groups”, “Health, Bethesda, […], USA).” for “tumor specimens were first minced coarsely and homogenized, and then stored in a freezer at -80° C.”

TNF-α = assay: IHC analysis of TNF-α in M5 tumors; type: in vivo, BALB/c nude mice; conditions: relative to the control group
Procedure: as §1

CD44 = assay: IHC analysis of CD44 in M5 tumors; type: in vivo, BALB/c nude mice; conditions: relative to the control group
Procedure: as §1

CD45 = assay: IHC analysis of CD45 in M5 tumors; type: in vivo, BALB/c nude mice; conditions: IHC staining, FIGS. 11A and 11B

Row | Structure (SMILES) | Tumor mass (M5 canine melanoma tumor [1]) [g] | Tumor mass reduction (%) (M5 canine melanoma tumor [1]) | TUNEL-positive cell count as multiple of the control (M5 canine melanoma tumor [2]) [times] | phosphorylated ERK expression (phosphorylated ERK) | TNF-α activity reduction (TNF-α) [%] | CD44 expression reduction (CD44) | CD45 activity, times higher than the control group (CD45) [times]
1 | Cc1ccc(S(N)(=O)=O)cc1 [PTS, p-Toluenesulfonamide] | 1.48 ± 0.33 | 44.2 | 3.5 | significantly higher | 73.0 | ~34.4% | 1.3
2 | N.N.[Cl][Pt][Cl] [Cisplatin, cisplatin, reference compound] | 1.37 ± 0.25 | 48.7 | 3.9 | significantly higher | 77.4 | about 40.9% | 1.4
